# Data reported in patent publication US11154589B2, “Antimicrobial composition combinations comprising star shaped peptide polymers” (The University of Melbourne, priority 2016, dated 2021).
# Like-named read-outs stand apart in the source and are kept apart here. Marks after values point to notes of the source that are not given here.
# Legend:
# [1] = test system: CMDR A. baumannii (FADDI-AB156); test: Antibiogram of CMDR A. baumannii (MIC); type: cell-based, Acinetobacter baumannii; settings: for Susceptibility: interpreted by CLSI resistant breakpoints
# [2] = test system: CMDR P. aeruginosa (FADDI-PA067); test: Antibiogram of CMDR P. aeruginosa; type: cell-based, Pseudomonas aeruginosa; settings: for Susceptibility: interpreted by CLSI resistant breakpoints
# [3] = test system: Pseudomonas aeruginosa (P. aeruginosa, ATCC 47085); test: MBC determination (in vitro antimicrobial experiment, CFU counting); type: cell-based; settings: Pseudomonas aeruginosa, ATCC47085; compound alone; P. aeruginosa (wild-type)
# Description: (§1) Freeze-dried cultures of Escherichia coli (E. coli, ATCC 25922), Klebsiella pneumoniae (K. pneumoniae, ATCC 13883), Pseudomonas aeruginosa (P. aeruginosa, ATCC 47085), Acinetobacter baumannii (A. baumannii, ATCC 19606), colistin and multidrug-resistant (CMDR) A. baumannii (FADDI-AB156), and CMDR P. aeruginosa (FADDI-PA067) were grown aerobically and maintained by passage at ambient temperature on horse blood agar (10% v/v defibrinated horse blood, 4.4% w/v Oxoid Blood Agar Base No. 2). Overnight cultures were made from transferring a colony (ca. half a loop) from the agar plates to culture tubes containing sterilized Luria-Bertani broth (LB, 1% w/v Bacto™ Tryptone, 1% w/v NaCl, 0.5% w/v Oxoid Yeast Extract) (20 mL). Bacterial cultures were incubated overnight at 37° C. with aeration and without agitation, with the exception of the two P. aeruginosa strains (ATCC 47085 and FADDI-PA067) which were cultured at 37° C. with aeration and agitation (150 rpm). On the next day, for E. coli, K. pneumonia, P. aeruginosa (ATCC 47085), and CMDR P. aeruginosa (FADDI-PA067), small aliquots (i.e., 0.5-3 mL) were taken from the culture tubes, further diluted with LB (20 mL), and incubated for 3-4 h at 37° C. with aeration before use. All bacterial cultures were cultured without agitation, with the exception of P. aeruginosa ATCC 47085 and FADDI-PA067 which were cultured with shaking at 150 rpm. For A. baumannii, an aliquot of 0.5 mL was taken from the overnight culture tube, further diluted with LB (200 mL), and incubated overnight at 37° C. with aeration before use.
# (§2) The 96-well plate was then incubated at 37° C. for 1.5 or 3 h. For each well, microbial solution was diluted with saline (0.9% NaCl solution) using an appropriate dilution factor and placed on a LB agar plate (LB broth containing 15 g/L Oxoid Blood Agar Base No. 2). For E. coli, K. pneumoniae, and A. Baumannii (ATCC 19606 and FADDI-AB156), the agar plates were incubated overnight at room temperature, and then at 37° C. with aeration for 2 h. For P. Aeruginosa (ATCC 47085 and FADDI-PA067), the agar plates were incubated at 37° C. with aeration. The number of colony-forming units (CFU) was counted and expressed as CFU/mL. Positive controls consisting of cells without any treatment were used. […] A minimum of two independent experiments (biological replicates) of the assay were conducted and three technical replicates were used in each experiment. Data is expressed as mean±standard deviation (SD) and analysed using student's t-test.
# [4] = test system: CMDR P. aeruginosa (FADDI-PA067); test: S16-antibiotic co-administration, synergy by Bliss Independence and HSA models; type: cell-based, Pseudomonas aeruginosa; settings: for MBC in combination: S16 and antibiotic co-administered, each at MBC50, 3 h
# Description: as §2
# (§3) The Bliss Independence and HSA models were used to calculate drug synergism. […] Biotechnol. 31, 160-165 (2013). With the Bliss Independence model, synergism was calculated using the formula, BICAB=A+B−AB (1), where A and B are the effects of the two drugs in isolation and BICAB is the combined effect of the two drugs as predicted by the Bliss Independence model. […] In the HSA model, if CAB is greater than the greater of A and B, CAB>max(A, B), synergy is observed. The quantitative effect of the compounds when administered alone (i.e., A and B) or in combination (i.e., CAB) was defined as the fractional reduction of the population, R=1−CFUt/CFU0, where CFUt is the CFU/mL measured after treatment, and CFU0 is the CFU/mL measured before treatment.
# [5] = test system: Pseudomonas aeruginosa (P. aeruginosa, ATCC 47085); test: as above; type: cell-based; settings: for MBC in combination: S16 and antibiotic co-administered, each at MBC50
# Description: as §2, §3
# [6] = test system: CMDR P. aeruginosa (FADDI-PA067); test: MBC determination (in vitro antimicrobial experiment, CFU counting); type: cell-based, Pseudomonas aeruginosa; settings: Pseudomonas aeruginosa, compound alone
# Description: as §1, §2
# [7] = test system: Acinetobacter baumannii (A. baumannii, ATCC 19606); test: as above; type: cell-based; settings: Acinetobacter baumannii, ATCC19606; compound alone; A. baumannii (wild-type)
# Description: as §1, §2
# [8] = test system: CMDR A. baumannii (FADDI-AB156); test: as above; type: cell-based, Acinetobacter baumannii; settings: Acinetobacter baumannii, compound alone
# Description: as §1, §2
# [9] = test system: CMDR A. baumannii (FADDI-AB156); test: S16-antibiotic co-administration, synergy by Bliss Independence and HSA models; type: cell-based, Acinetobacter baumannii; settings: for MBC in combination: S16 and antibiotic co-administered, each at MBC50, 3 h
# Description: as §2, §3
# [10] = test system: Acinetobacter baumannii (A. baumannii, ATCC 19606); test: as above; type: cell-based; settings: for MBC in combination: S16 and antibiotic co-administered, each at MBC50
# Description: as §2, §3
# [11] = Acinetobacter baumannii, CMDR A. baumannii (FADDI-AB156), read-out: MIC
# [12] = CMDR A. baumannii (FADDI-AB156)
# [13] = co-administered S16 (at MBC50) and antibiotic, antibiotic concentration giving at least 2-log reduction in CFU/mL, 3 h
# [14] = antibiotic in combination with S16, 3 h, Bliss Independence model
# [15] = antibiotic in combination with S16, 3 h, Highest Single Agent model
molecule,measurement,setting,value
NCC[C@H](O)C(=O)N[C@@H]1C[C@H](N)[C@@H](O[C@H]2O[C@H](CN)[C@@H](O)[C@H](O)[C@H]2O)[C@H](O)[C@H]1O[C@H]1O[C@H](CO)[C@@H](O)[C@H](N)[C@H]1O [Amikacin],MIC,[1]; [11],≥ 109 µM
same,Susceptibility,[1]; [12],Resistant
C[C@H]1[C@H](NC(=O)/C(=N\OC(C)(C)C(=O)O)c2csc(N)n2)C(=O)N1S(=O)(=O)O [Aztreonam],Susceptibility,[2],Resistant
Cc1nnc(SCC2=C(C(=O)O)N3C(=O)[C@@H](NC(=O)Cn4cnnn4)[C@H]3SC2)s1 [Cefazolin],MIC,[1]; [11],≥ 141 µM
same,Susceptibility,[1]; [12],Resistant
CO/N=C(\C(=O)N[C@@H]1C(=O)N2C(C(=O)[O-])=C(C[N+]3(C)CCCC3)CS[C@H]12)c1csc(N)n1 [Cefepime],MIC,[1]; [11],≥ 133 µM
same,Susceptibility,[1]; [12],Resistant
CO[C@@]1(NC(=O)Cc2cccs2)C(=O)N2C(C(=O)O)=C(COC(N)=O)CS[C@@H]21 [Cefoxitin],MIC,[1]; [11],≥ 150 µM
same,Susceptibility,[1]; [12],Resistant
CC(C)(O/N=C(\C(=O)N[C@@H]1C(=O)N2C(C(=O)[O-])=C(C[n+]3ccccc3)CS[C@H]12)c1csc(N)n1)C(=O)O [Ceftazidime],Susceptibility,[2],Resistant
same,MIC,[1]; [11],≥ 117 µM
same,Susceptibility,[1]; [12],Resistant
CO/N=C(\C(=O)N[C@@H]1C(=O)N2C(C(=O)O)=C(CSc3nc(=O)c(=O)[nH]n3C)CS[C@H]12)c1csc(N)n1 [Ceftriaxone],MIC,[1]; [11],≥ 115 µM
same,Susceptibility,[1]; [12],Resistant
O=C(O)c1cn(C2CC2)c2cc(N3CCNCC3)c(F)cc2c1=O [Ciprofloxacin],MIC,[1]; [11],≥ 12.1 µM
"C[C@H]1c2cccc(O)c2C(=O)C2=C(O)[C@]3(O)C(=O)C(C(N)=O)=C(O)[C@@H](N(C)C)[C@@H]3[C@@H](O)[C@@H]21 [Dox, doxycycline]",MBC,[3],50.7 µM
same,Fold reduction of MBC,[4]; MBCeff with S16 versus MBC alone,4.2 fold
same,MBC in combination,[4],295.3 µM
same,"MBC in combination, MBCeff",[4]; [13],148.2^a μM
same,MBC in combination,"[5]; P. aeruginosa, 3 h",25.3 µM
same,MBC,[6],630 µM
"C[C@@H](O)[C@H]1C(=O)N2C(C(=O)O)=C(SCCN=CN)C[C@H]12 [Imi, imipenem]",MBC,[7],37.8 µM
same,MBC,[8],355 µM
same,Fold reduction of MBC,[9]; MBCeff in combination versus MBC alone,4.0 fold
same,MBC in combination,[9],177.4 µM
same,"MBC in combination, MBCeff",[9]; [13],88.2^a μM
same,MBC in combination,"[10]; A. baumannii, 3 h",19.0 µM
same,MIC,[1]; [11],355 µM
C[C@@H](O)[C@H]1C(=O)N2C(C(=O)O)=C(S[C@@H]3CN[C@H](C(=O)N(C)C)C3)[C@H](C)[C@H]12 [Meropenem],MIC,[1]; [11],≥ 41.7 µM
same,Susceptibility,[1]; [12],Resistant
CCn1cc(C(=O)O)c(=O)c2ccc(C)nc21 [Nalidixic Acid],MIC,[1]; Acinetobacter baumannii,≥ 138 µM
same,Susceptibility,[1]; [12],Resistant
O=C1CN(/N=C/c2ccc([N+](=O)[O-])o2)C(=O)N1 [Nitrofurantoin],MIC,[1]; [11],≥ 2150 µM
CCn1cc(C(=O)O)c(=O)c2cc(F)c(N3CCNCC3)cc21 [Norfloxacin],MIC,[1]; [11],≥ 50.1 µM
same,Susceptibility,[1]; [12],Resistant
CCN1CCN(C(=O)N[C@@H](C(=O)N[C@@H]2C(=O)N3[C@@H]2SC(C)(C)[C@@H]3C(=O)O)c2ccccc2)C(=O)C1=O [Piperacillin],Susceptibility,[2],Resistant
CC1(C)S[C@@H]2[C@H](NC(=O)[C@H](C(=O)O)c3ccsc3)C(=O)N2[C@H]1C(=O)O [Ticarcillin],Susceptibility,[2],Resistant
"NC[C@H]1O[C@H](O[C@H]2[C@H](O)[C@@H](O[C@H]3O[C@H](CO)[C@@H](O)[C@H](N)[C@H]3O)[C@H](N)C[C@@H]2N)[C@H](N)C[C@@H]1O [Tob, tobramycin]",MBC,[3],3.9 µM
same,MBC,[7],15.2 µM
same,Susceptibility,[2],Resistant
same,MBC,[8],> 2190 µM
same,Interaction with S16 as evaluated by the Bliss Independence and HSA models (in words),[4]; 3 h time point,non-synergistic
same,MBC in combination,[4],119.7 µM
same,Antimicrobial activity on co-administration with S16 compared to compounds alone (log change in CFU/mL),"[4]; all compounds at MBC50, t=3 h",antagonistic
same,Synergistic? (Yes/No) Bliss*,[4]; [14],No
same,Synergistic? (Yes/No) HAS*,[4]; [15],No
same,Interaction with S16 as evaluated by the Bliss Independence and HSA models (in words),[9]; 3 h time point,non-synergistic
same,MBC in combination,[9],2190.3 µM
same,Antimicrobial activity on co-administration with S16 compared to compounds alone (log change in CFU/mL),"[9]; all compounds at MBC50, t=3 h",antagonistic
same,Synergistic? (Yes/No) Bliss*,[9]; [14],No
same,Synergistic? (Yes/No) HAS*,[9]; [15],No
same,Interaction with S16 as evaluated by the Bliss Independence and HSA models (in words),"[5]; P. aeruginosa wild-type, 3 h time point",non-synergistic
same,Antimicrobial activity on co-administration with S16 compared to compounds alone (log change in CFU/mL),"[5]; P. aeruginosa wild-type, all compounds at MBC50, t=3 h",antagonism
same,MBC in combination,"[5]; P. aeruginosa, 3 h",1.9 µM
same,Synergistic? (Yes/No) Bliss*,"[5]; antibiotic in combination with S16, P. aeruginosa, 3 h, Bliss Independence model",No
same,Synergistic? (Yes/No) HAS*,"[5]; antibiotic in combination with S16, P. aeruginosa, 3 h, Highest Single Agent model",No
same,Interaction with S16 as evaluated by the Bliss Independence and HSA models (in words),"[10]; A. baumannii wild-type, 3 h time point",non-synergistic
same,Antimicrobial activity on co-administration with S16 compared to compounds alone (log change in CFU/mL),"[10]; A. baumannii wild-type, all compounds at MBC50, t=3 h",antagonism
same,MBC in combination,"[10]; A. baumannii, 3 h",7.6 µM
same,Synergistic? (Yes/No) Bliss*,"[10]; antibiotic in combination with S16, A. baumannii, 3 h, Bliss Independence model",No
same,Synergistic? (Yes/No) HAS*,"[10]; antibiotic in combination with S16, A. baumannii, 3 h, Highest Single Agent model",No
same,MBC,[6],239 µM
same,MIC,[1]; [11],> 2190 µM
same,Susceptibility,[1]; [12],Resistant
COc1cc(Cc2cnc(N)nc2N)cc(OC)c1OC [Trimethoprim],MIC,[1]; [11],≥ 55.1 µM
same,Susceptibility,[1]; [12],Resistant
Colistin Sulfate,"Susceptibility, concentration in parentheses",[2],> 110.8 µM
same,Susceptibility,[2],Resistant
same,Susceptibility,[1]; [12],Resistant
same,MIC,"[1]; CMDR A. baumannii (FADDI-AB156), read-out: MIC",13.8 µM
